biological target: T1, HIV-1 protease (Human immunodeficiency virus type 1 group M subtype B, UniProt P04585); assay: HIV protease enzyme inhibition, fluorometric assay of Toth and Marshall; assay type: biochemical; settings: Table 1, acyclic compounds; read-out: Ki
T1 construct: A simple, continuous fluorometric assay for HIV protease
Method: (§1) The inhibitory potencies of acyclic and cyclic inhibitors were measured by the assay protocol of Toth and Marshall (Toth, M. V.; Marshall, G. R. A simple, continuous fluorometric assay for HIV protease. Int. J. Pep. Protien Res. 1990, 36, 544-55).

Row | Structure (SMILES) | Ki [nM]
1 | C=CCCCCN(CC(O)C(Cc1ccccc1)NC(=O)OC1COC2OCCC12)S(=O)(=O)c1ccc(OC)cc1OCC=C (centres unmarked) [Compound 13d] | < 10
2 | C=CCCOc1cc(OC)ccc1S(=O)(=O)N(CC=C)CC(O)C(Cc1ccccc1)NC(=O)OC1COC2OCCC12 (centres unmarked) [Compound 13g] | < 1
3 | C=CCCCCN(CC(O)C(Cc1ccccc1)NC(=O)OC1COC2OCCC12)S(=O)(=O)c1ccc(OC)cc1OCCC=C (centres unmarked) [Compound 13c] | < 10

same assay, conditions: Table 2; read-out: Ki

Row | Structure (SMILES) | Ki [nM]
4 | COc1ccc2c(c1)OCC=CCN(CC(O)C(Cc1ccccc1)NC(=O)OC1COC3OCCC13)S2(=O)=O (centres unmarked) [Compound 14h] | < 10
5 | COc1ccc2c(c1)OCCC=CCN(CC(O)C(Cc1ccccc1)NC(=O)OC1COC3OCCC13)S2(=O)=O (centres unmarked) [Compound 14g] | < 1

same assay, conditions: Table 4; read-out: Ki

Row | Structure (SMILES) | Ki [nM]
6 | COc1ccc2c(c1)OCCCCC=CCC(C)(C)CN(CC(O)C(Cc1ccccc1)NC(=O)OC1COC3OCCC13)S2(=O)=O (centres unmarked) [Compound 20a] | < 100
7 | COc1ccc2c(c1)OCCCCCCCC(C)CN(CC(O)C(Cc1ccccc1)NC(=O)OC1COC3OCCC13)S2(=O)=O (centres unmarked) [Compound 22c] | < 1
8 | COc1ccc2c(c1)OCCCCCCCC(C)(C)CN(CC(O)C(Cc1ccccc1)NC(=O)OC1COC3OCCC13)S2(=O)=O (centres unmarked) [Compound 22a] | < 10
9 | COc1ccc2c(c1)OCCCCC=CCC(C)CN(CC(O)C(Cc1ccccc1)NC(=O)OC1COC3OCCC13)S2(=O)=O (centres unmarked) [Compound 21c] | < 1

same assay, conditions: Table 5; read-out: Ki

Row | Structure (SMILES) | Ki [nM]
10 | COc1ccc2c(c1)OCCCCCN1C(=O)CC[C@H]1CN(C[C@@H](O)[C@H](Cc1ccccc1)NC(=O)O[C@H]1CO[C@H]3OCC[C@H]31)S2(=O)=O [Compound 02110A] | < 100
11 | COc1ccc2c(c1)OCCCCCN1CCC[C@@H]1CN(C[C@@H](O)[C@H](Cc1ccccc1)NC(=O)O[C@H]1CO[C@H]3OCC[C@H]31)S2(=O)=O [Compound 00610A] | > 100
12 | COc1ccc2c(c1)OCC/C=C\CN1C(=O)CC[C@@H]1CN(C[C@@H](O)[C@H](Cc1ccccc1)NC(=O)OC(C)(C)C)S2(=O)=O [Compound 01010A] | > 100
13 | C=CCN1CCCC1CN(C[C@@H](O)[C@H](Cc1ccccc1)NC(=O)O[C@H]1CO[C@H]2OCC[C@H]21)S(=O)(=O)c1ccc(OC)cc1 (some centres unmarked) [Compound 0649A] | < 10
14 | COc1ccc2c(c1)OCC/C=C\CN1C(=O)CC[C@@H]1CN(C[C@@H](O)[C@H](Cc1ccccc1)NC(=O)O[C@H]1CO[C@H]3OCC[C@H]31)S2(=O)=O [Compound 01310A] | < 100
15 | COc1ccc2c(c1)OCCC=CCN1C(=O)CC[C@H]1CN(C[C@@H](O)[C@H](Cc1ccccc1)NC(=O)O[C@H]1CO[C@H]3OCC[C@H]31)S2(=O)=O [Compound 01410A] | > 100
16 | COc1ccc2c(c1)OCC/C=C/CN1CCC[C@H]1CN(C[C@@H](O)[C@H](Cc1ccccc1)NC(=O)O[C@H]1CO[C@H]3OCC[C@H]31)S2(=O)=O [Compound 00810A] | > 100
17 | COc1ccc2c(c1)OCC/C=C/CN1C(=O)CC[C@@H]1CN(C[C@@H](O)[C@H](Cc1ccccc1)NC(=O)O[C@H]1CO[C@H]3OCC[C@H]31)S2(=O)=O [Compound 01210A] | < 1
18 | C=CCOc1cc(OC)ccc1S(=O)(=O)N(CC1CCCN1CC=C)C[C@@H](O)[C@H](Cc1ccccc1)NC(=O)O[C@H]1CO[C@H]2OCC[C@H]21 (some centres unmarked) [Compound 0659A] | > 100
19 | COc1ccc2c(c1)OCC/C=C/CN1C(=O)CC[C@@H]1CN(C[C@@H](O)[C@H](Cc1ccccc1)NC(=O)OC(C)(C)C)S2(=O)=O [Compound 00910A] | > 100
20 | COc1ccc2c(c1)OCCCCCN1C(=O)CC[C@@H]1CN(C[C@@H](O)[C@H](Cc1ccccc1)NC(=O)O[C@H]1CO[C@H]3OCC[C@H]31)S2(=O)=O [Compound 02210A] | < 1
21 | C=CCN1C(=O)CC[C@@H]1CN(C[C@@H](O)[C@H](Cc1ccccc1)NC(=O)O[C@H]1CO[C@H]2OCC[C@H]21)S(=O)(=O)c1ccc(OC)cc1 [Compound 01110A] | < 1

tested on: HIV-1; assay: antiviral assay (IC50); assay type: cell-based; settings: Human immunodeficiency virus 1, Table 3, E and Z isomers; read-out: IC50
Method: as §1

Row | Structure (SMILES) | IC50 [nM]
22 | COc1ccc2c(c1)OCCC=CCCCCN(CC(O)C(Cc1ccccc1)NC(=O)OC1COC3OCCC13)S2(=O)=O (centres unmarked) [Compound 14c-E] | < 10

same assay, conditions: Human immunodeficiency virus 1, Table 4; read-out: IC50

Row | Structure (SMILES) | IC50 [nM]
23 | COc1ccc2c(c1)OCCCCC=CCC(C)(C)CN(CC(O)C(Cc1ccccc1)NC(=O)OC1COC3OCCC13)S2(=O)=O (centres unmarked) [Compound 20a] | > 1000
24 | COc1ccc2c(c1)OCCCCCCCC(C)(C)CN(CC(O)C(Cc1ccccc1)NC(=O)OC1COC3OCCC13)S2(=O)=O (centres unmarked) [Compound 22a] | > 1000

same assay, conditions: Table 4; read-out: IC50

Row | Structure (SMILES) | IC50 [nM]
25 | COc1ccc2c(c1)OCCCCCCCC(C)CN(CC(O)C(Cc1ccccc1)NC(=O)OC1COC3OCCC13)S2(=O)=O (centres unmarked) [Compound 22c] | < 100
26 | COc1ccc2c(c1)OCCCCC=CCC(C)CN(CC(O)C(Cc1ccccc1)NC(=O)OC1COC3OCCC13)S2(=O)=O (centres unmarked) [Compound 21c] | < 100
